Experimental data published in ChEMBL document CHEMBL1201862, “PubChem BioAssay data set” (2004).
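Dose response: 5 concentrations. Exposure: 48 h. Format: 96-well plates. Endpoint: linear interpolation; highest concentration if not reached. GI50 marks 50% less growth.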 Activity calls are given as the source filed them. No stated cut-off is given here; in the data, active = GI50 up to about 1.1 µM and inactive = higher.

Key:
Assay in all cases: inhibition of tumour cell growth, NCI panel, 48 h
DLD-1 = tested on: DLD-1
SNB-75 = tested on: SNB-75
SK-MEL-28 = tested on: SK-MEL-28
SF-268 = tested on: SF-268
UO-31 = tested on: UO-31
UACC-257 = tested on: UACC-257
HL-60 = tested on: HL-60
NCI-H460 = tested on: NCI-H460
SN12C = tested on: SN12C
HOP-62 = tested on: HOP-62
RXF 631 = tested on: RXF 631
RXF 393 = tested on: RXF 393
U-251 = tested on: U-251
HT-29 = tested on: HT-29
DMS-114 = tested on: DMS-114
OVCAR-3 = tested on: OVCAR-3
KM12 = tested on: KM12
LXFL 529 = tested on: LXFL 529
HOP-92 = tested on: HOP-92
K562 = tested on: K562
M14 = tested on: M14
TK-10 = tested on: TK-10
A498 = tested on: A498
DMS-273 = tested on: DMS-273
HCT-116 = tested on: HCT-116
ACHN = tested on: ACHN
A549 = tested on: A549
OVCAR-8 = tested on: OVCAR-8
RPMI-8226 = tested on: RPMI-8226
SF-295 = tested on: SF-295
NCI-H226 = tested on: NCI-H226
OVCAR-4 = tested on: OVCAR-4
LOX IMVI = tested on: LOX IMVI
NCI-H23 = tested on: NCI-H23
Malme-3M = tested on: Malme-3M
UACC-62 = tested on: UACC-62
OVCAR-5 = tested on: OVCAR-5
CCRF-CEM = tested on: CCRF-CEM
SNB-19 = tested on: SNB-19
SK-MEL-2 = tested on: SK-MEL-2
XF498 = tested on: XF498
COLO 205 = tested on: COLO 205
CAKI-1 = tested on: CAKI-1
IGROV-1 = tested on: IGROV-1
EKVX = tested on: EKVX
M19-MEL = tested on: M19-MEL
786-0 = tested on: 786-0
SW-620 = tested on: SW-620
HCC 2998 = tested on: HCC 2998
MOLT-4 = tested on: MOLT-4
HOP-18 = tested on: HOP-18
MDA-MB-435 = tested on: MDA-MB-435
MDA-N = tested on: MDA-N
T47D = tested on: T47D
DU-145 = tested on: DU-145
SF-539 = tested on: SF-539
SR = tested on: SR
PC-3 = tested on: PC-3
NCI-H522 = tested on: NCI-H522
KM-20L2 = tested on: KM-20L2
BT-549 = tested on: BT-549
Hs-578T = tested on: Hs-578T
HCT-15 = tested on: HCT-15
SK-MEL-5 = tested on: SK-MEL-5
MCF7 = tested on: MCF7
SK-OV-3 = tested on: SK-OV-3
MDA-MB-231 = tested on: MDA-MB-231
SNB-78 = tested on: SNB-78

`CCOC(=O)C(=O)C1C(=O)Nc2ccccc21` (configuration not stated) was tested, and the GI50 (DLD-1) was > 100 µM (inactive), the GI50 (SNB-75) was > 100 µM (inactive) and the GI50 (SK-MEL-28) was > 100 µM (inactive). The GI50 (SF-268) was > 100 µM (inactive), the GI50 (UO-31) was > 100 µM (inactive) and the GI50 (UACC-257) was > 100 µM (inactive). For the same compound, the GI50 (HL-60) was > 100 µM (inactive), the GI50 (NCI-H460) was > 100 µM (inactive) and the GI50 (SN12C) was > 100 µM (inactive). The GI50 (HOP-62) was > 100 µM (inactive), the GI50 (RXF 631) was > 100 µM (inactive) and the GI50 (RXF 393) was > 100 µM (inactive). The GI50 (U-251) was > 100 µM (inactive), the GI50 (HT-29) was > 100 µM (inactive) and the GI50 (DMS-114) was > 100 µM (inactive). For the same compound, the GI50 (OVCAR-3) was > 100 µM (inactive), the GI50 (KM12) was > 100 µM (inactive) and the GI50 (LXFL 529) was > 100 µM (inactive). For the same compound, the GI50 (HOP-92) was 50.8 µM (inactive), the GI50 (K562) was > 100 µM (inactive) and the GI50 (M14) was > 100 µM (inactive). For the same compound, the GI50 (TK-10) was > 100 µM (inactive), the GI50 (A498) was > 100 µM (inactive) and the GI50 (DMS-273) was > 100 µM (inactive). The GI50 (HCT-116) was > 100 µM (inactive), the GI50 (ACHN) was > 100 µM (inactive) and the GI50 (A549) was > 100 µM (inactive). The GI50 (OVCAR-8) was > 100 µM (inactive), the GI50 (RPMI-8226) was > 100 µM (inactive) and the GI50 (SF-295) was > 100 µM (inactive). For the same compound, the GI50 (NCI-H226) was > 100 µM (inactive), the GI50 (OVCAR-4) was > 100 µM (inactive) and the GI50 (LOX IMVI) was > 100 µM (inactive). The GI50 (NCI-H23) was > 100 µM (inactive), the GI50 (Malme-3M) was > 100 µM (inactive) and the GI50 (UACC-62) was > 100 µM (inactive). The GI50 (OVCAR-5) was > 100 µM (inactive), the GI50 (CCRF-CEM) was > 100 µM (inactive) and the GI50 (SNB-19) was > 100 µM (inactive). For the same compound, the GI50 (SK-MEL-2) was > 100 µM (inactive), the GI50 (XF498) was > 100 µM (inactive) and the GI50 (COLO 205) was > 100 µM (inactive). The GI50 (CAKI-1) was > 100 µM (inactive), the GI50 (IGROV-1) was > 100 µM (inactive) and the GI50 (EKVX) was > 100 µM (inactive). For the same compound, the GI50 (M19-MEL) was > 100 µM (inactive), the GI50 (786-0) was > 100 µM (inactive) and the GI50 (SW-620) was > 100 µM (inactive). The GI50 (HCC 2998) was > 100 µM (inactive) and the GI50 (MOLT-4) was > 100 µM (inactive).

For `Cc1ccc(NCCN(C)C)c2c(=O)c3cc(O)ccc3sc12`, the GI50 (DLD-1) was 6.61 µM (inactive), the GI50 (SNB-75) was 1.34 µM (inactive) and the GI50 (SK-MEL-28) was 6.01 µM (inactive). The GI50 (HOP-18) was 3.64 µM (inactive), the GI50 (SF-268) was 4.35 µM (inactive) and the GI50 (UO-31) was 4.23 µM (inactive). The GI50 (MDA-MB-435) was 1.53 µM (inactive), the GI50 (MDA-N) was 2.04 µM (inactive) and the GI50 (T47D) was 7.91 µM (inactive). The GI50 (DU-145) was 2.18 µM (inactive), the GI50 (UACC-257) was 8 µM (inactive) and the GI50 (HL-60) was 0.416 µM (active). The GI50 (NCI-H460) was 0.0516 µM (active), the GI50 (SN12C) was 1.94 µM (inactive) and the GI50 (HOP-62) was 0.586 µM (active). For the same compound, the GI50 (RXF 393) was 1.22 µM (inactive), the GI50 (U-251) was 1.63 µM (inactive) and the GI50 (HT-29) was 2.49 µM (inactive). The GI50 (DMS-114) was 11.7 µM (inactive), the GI50 (OVCAR-3) was 9.33 µM (inactive) and the GI50 (SF-539) was 3.55 µM (inactive). For the same compound, the GI50 (KM12) was 4.28 µM (inactive), the GI50 (LXFL 529) was 8.18 µM (inactive) and the GI50 (SR) was 241 nM (active). The GI50 (HOP-92) was 2.38 µM (inactive), the GI50 (K562) was 1.5 µM (inactive) and the GI50 (M14) was 4.88 µM (inactive). For the same compound, the GI50 (TK-10) was 17.6 µM (inactive), the GI50 (PC-3) was 1.22 µM (inactive) and the GI50 (NCI-H522) was 4.33 µM (inactive). For the same compound, the GI50 (A498) was 6.79 µM (inactive), the GI50 (DMS-273) was 1.05 µM (active) and the GI50 (HCT-116) was 1.96 µM (inactive). The GI50 (ACHN) was 1 µM (active), the GI50 (KM-20L2) was 8.87 µM (inactive) and the GI50 (A549) was 0.214 µM (active). The GI50 (BT-549) was 5.4 µM (inactive), the GI50 (OVCAR-8) was 2.44 µM (inactive) and the GI50 (RPMI-8226) was 2.57 µM (inactive). The GI50 (SF-295) was 5.27 µM (inactive), the GI50 (NCI-H226) was 4.48 µM (inactive) and the GI50 (OVCAR-4) was 7.21 µM (inactive). For the same compound, the GI50 (LOX IMVI) was 1.05 µM (active), the GI50 (NCI-H23) was 2.22 µM (inactive) and the GI50 (Hs-578T) was 933 nM (active). For the same compound, the GI50 (Malme-3M) was 5.28 µM (inactive), the GI50 (UACC-62) was 2.95 µM (inactive) and the GI50 (OVCAR-5) was 15.3 µM (inactive). The GI50 (CCRF-CEM) was 0.284 µM (active), the GI50 (SNB-19) was 2.64 µM (inactive) and the GI50 (SK-MEL-2) was 20.5 µM (inactive). The GI50 (XF498) was 4.12 µM (inactive), the GI50 (COLO 205) was 8.85 µM (inactive) and the GI50 (HCT-15) was 2690 nM. For the same compound, the GI50 (SK-MEL-5) was 2.86 µM (inactive), the GI50 (MCF7) was 177 nM (active) and the GI50 (CAKI-1) was 1.31 µM (inactive). The GI50 (SK-OV-3) was 3.33 µM (inactive), the GI50 (IGROV-1) was 4.47 µM (inactive) and the GI50 (MDA-MB-231) was 1.87 µM (inactive). For the same compound, the GI50 (EKVX) was 12.4 µM (inactive), the GI50 (M19-MEL) was 10.4 µM (inactive) and the GI50 (786-0) was 1.94 µM (inactive). The GI50 (SW-620) was 1.19 µM (inactive), the GI50 (HCC 2998) was 3.79 µM (inactive) and the GI50 (MOLT-4) was 0.0454 µM (active). For the same compound, the GI50 (SNB-78) was 15.6 µM (inactive).
